Source: patent US20080014288A1, “Zinc-containing treatments for hyperphosphatemia” (priority 2004, published 2008)
Entries after “also recorded” stand apart in the source; their conditions may differ.

Tested on: house male Sprague Dawley (SD) rats
Experiment: In vivo urinary phosphate excretion in rats fed test substance mixed in Purina 5002 diet
Design: species or system rat
Details: for % Urinary Phosphate Relative to that of Control Animals / Phosphate Excretion: Table 1; for Phosphate Excretion: urine collected on days 5 and 6; for amounts of urinary phosphate compared with control (in words): rats on zinc therapy vs control which did not go through the zinc therapy
Description: House male Sprague Dawley (SD) rats were used for the experiments.
To establish baseline phosphorus excretion, the rats were placed in metabolic cages for 48 hours. Their urine was collected and its phosphorus content analyzed with a Hitachi analyzer to determine phosphorus excretion in mg/day. Any rats with outlying values were excluded; and the remainder of the rats was distributed into groups.
Cellulose at 0.5% by weight was used as a negative control. For each rat, 200 g of diet was prepared.
Each rat was weighed and placed on the standard diet. After 4 days the standard diet was replaced with the treatment diet (or control diet for the control group). On days 5 and 6, urine samples from the rats at 24 hours (±30 minutes) were collected and analyzed. The test rats were again weighed, and any weight loss or gain was calculated. Any remaining food was also weighed to calculate the amount of food consumed per day. A change in phosphorus excretion relative to baseline and cellulose negative control was calculated using Excel program.
A change in phosphorus excretion relative to baseline and cellulose negative control was calculated using Excel program.

[1] = 0.5% of diet by weight in Purina 5002, cellulose 0.5% negative control
[2] = 0.5% of diet by weight in Purina 5002

Compound	% Urinary Phosphate Relative to that of Control Animals [1]	Phosphate Excretion [2]	amounts of urinary phosphate compared with control (in words)	amounts of urinary phosphate compared with control (in words) (listed as zinc acetate dihydrate)	amounts of urinary phosphate compared with control (in words) (citrate dihydrate)	amounts of urinary phosphate compared with control (in words) (monohydrate)	% Urinary Phosphate Relative to that of Control Animals (0.25% of diet by weight in Purina 5002, cellulose negative control)	Phosphate Excretion (0.25% of diet by weight in Purina 5002)
O=C[O-].O=C[O-].[Zn+2] [Zinc Formate]	48.5%	10.1 mg/day	much lower	–	–	–	–	–
O=C([O-])C(=O)[O-].[Zn+2] [Zinc Oxalate]	78.0%	16.2 mg/day	much lower	–	–	–	–	–
CC(=O)[O-].CC(=O)[O-].O.O.[Zn+2] [Zinc acetate dehydrate]	56.7%	9.4 mg/day	much lower	substantially reduce	–	–	–	–
[Cl-].[Cl-].[Zn+2] [Zinc chloride]	50.6%	8.8 mg/day	much lower; also recorded: substantially reduce	–	–	–	–	–
O.O.O=C([O-])CC(O)(CC(=O)[O-])C(=O)[O-].O=C([O-])CC(O)(CC(=O)[O-])C(=O)[O-].[Zn+2].[Zn+2].[Zn+2] [Zinc citrate dihydrate]	70.8%	12 mg/day	–	–	much lower; also recorded: substantially reduce	–	–	–
NCC(=O)[O-].NCC(=O)[O-].O.[Zn+2] [Zinc glycinate monohydrate]	79.7%	15.5 mg/day	–	–	–	much lower; also recorded: substantially reduce	–	–
[O]=[Zn] [Zinc oxide]	18.4%	3.2 mg/day	much lower; also recorded: substantially reduce	–	–	–	–	–
[O-2].[Zn+2] [zinc oxide, nanopowder, zinc oxide]	–	–	–	–	–	–	50.7%	9.7 mg/day
